6 compounds from US20160271263A1 (Novo Nordisk A/S, priority 2010, published 2016) can be followed below.

Numbered stars: 1 amine (or outer) side, 2 acyl side, 3 side chain; on linkers, the order of the positions; unused ones are H or OH. Side chains are listed from the residue outwards. Peptide text beside a SMILES is read from it. * marks the point of attachment. C18 diacid = O=C(O)CCCCCCCCCCCCCCCCC(=O)*; γGlu = O=C(O)[C@H](CCC(=O)[*:2])N[*:1]; AEEA = NCCOCCOCC(=O)O

Chain of glucagon receptor (P47871 26-477): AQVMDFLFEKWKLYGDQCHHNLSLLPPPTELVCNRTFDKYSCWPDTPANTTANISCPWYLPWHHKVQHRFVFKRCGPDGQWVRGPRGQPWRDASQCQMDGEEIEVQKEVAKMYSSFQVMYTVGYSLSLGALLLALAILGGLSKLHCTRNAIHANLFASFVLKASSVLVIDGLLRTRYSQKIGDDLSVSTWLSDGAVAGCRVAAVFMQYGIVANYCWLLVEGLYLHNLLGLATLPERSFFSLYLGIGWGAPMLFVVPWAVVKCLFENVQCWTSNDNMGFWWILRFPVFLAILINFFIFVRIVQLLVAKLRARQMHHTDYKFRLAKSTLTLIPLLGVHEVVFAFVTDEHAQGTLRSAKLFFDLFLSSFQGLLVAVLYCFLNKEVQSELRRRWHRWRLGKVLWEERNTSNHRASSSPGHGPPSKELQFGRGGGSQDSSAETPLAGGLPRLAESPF

The test concerns the target glucagon receptor (Homo sapiens, UniProt P47871). Kind of test: cell-based.
Broadly, the EC50 is the concentration that produces a half-maximal response. Compound `CC(C)C[C@H](NC(=O)[C@H](Cc1ccc(O)cc1)NC(=O)[C@H](CCCCN)NC(=O)[C@H](CO)NC(=O)[C@H](Cc1ccc(O)cc1)NC(=O)[C@H](CC(=O)O)NC(=O)[C@H](CO)NC(=O)[C@@H](NC(=O)[C@H](Cc1ccccc1)NC(=O)[C@@H](NC(=O)CNC(=O)[C@H](CCC(N)=O)NC(=O)[C@H](CO)NC(=O)[C@@H](N)Cc1c[nH]cn1)[C@@H](C)O)[C@@H](C)O)C(=O)N[C@@H](CC(=O)O)C(=O)N[C@@H](CO)C(=O)N[C@@H](CCCNC(=N)N)C(=O)N[C@@H](CCCNC(=N)N)C(=O)N[C@@H](C)C(=O)N[C@@H](CCC(N)=O)C(=O)N[C@@H](CC(=O)O)C(=O)N[C@@H](Cc1ccccc1)C(=O)N[C@H](C(=O)N[C@@H](CCC(N)=O)C(=O)N[C@@H](CCCCNC(=O)CC[C@H](NC(=O)CC[C@H](NC(=O)COCCOCCNC(=O)COCCOCCNC(=O)CC[C@H](NC(=O)CCCCCCCCCCCCCCCCC(=O)O)C(=O)O)C(=O)O)C(=O)O)C(=O)N[C@@H](CC(C)C)C(=O)N[C@@H](CC(C)C)C(=O)N[C@@H](CC(N)=O)C(=O)N[C@H](C(=O)O)[C@@H](C)O)C(C)C` [Example 76, N^ε25-[(4S)-4-carboxy-4-[[(4S)-4-carboxy-4-[[2-[2-[2-[[2-[2-[2-[[(4S)-4-carboxy-4-(17-carboxyheptadecanoylamino)butanoyl]amino]ethoxy]ethoxy]acetyl]amino]ethoxy]ethoxy]acetyl]amino]butanoyl]amino]butanoyl]-[Lys^25,Leu^27]-Glucagon] came in with a 50% effective concentration (EC50) of 0.988 nM.
In the case of `CC(C)C[C@H](NC(=O)[C@H](Cc1ccc(O)cc1)NC(=O)[C@H](CCCCN)NC(=O)[C@H](CO)NC(=O)[C@H](Cc1ccc(O)cc1)NC(=O)[C@H](CC(=O)O)NC(=O)[C@H](CO)NC(=O)[C@@H](NC(=O)[C@H](Cc1ccccc1)NC(=O)[C@@H](NC(=O)CNC(=O)[C@H](CCC(N)=O)NC(=O)[C@H](CO)NC(=O)[C@@H](N)Cc1c[nH]cn1)[C@@H](C)O)[C@@H](C)O)C(=O)N[C@@H](CC(=O)O)C(=O)N[C@@H](CCCCNC(=O)COCCOCCNC(=O)COCCOCCNC(=O)CC[C@H](NC(=O)CC[C@H](NC(=O)CC[C@H](NC(=O)CCCCCCCCCCCCCCCCC(=O)O)C(=O)O)C(=O)O)C(=O)O)C(=O)N[C@@H](CCCNC(=N)N)C(=O)N[C@@H](CCCNC(=N)N)C(=O)N[C@@H](C)C(=O)N[C@@H](CCC(N)=O)C(=O)N[C@@H](CC(=O)O)C(=O)N[C@@H](Cc1ccccc1)C(=O)N[C@H](C(=O)N[C@@H](CCC(N)=O)C(=O)N[C@@H](Cc1c[nH]c2ccccc12)C(=O)N[C@@H](CC(C)C)C(=O)N[C@@H](CC(C)C)C(=O)N[C@@H](CC(N)=O)C(=O)N[C@H](C(=O)O)[C@@H](C)O)C(C)C` [Example 77, N^ε16-[2-[2-[2-[[2-[2-[2-[[(4S)-4-carboxy-4-[[(4S)-4-carboxy-4-[[(4S)-4-carboxy-4-(17-carboxyheptadecanoylamino)butanoyl]amino]butanoyl]amino]butanoyl]amino]ethoxy]ethoxy]acetyl]amino]ethoxy]ethoxy]acetyl]-[Lys^16,Leu^27]-Glucagon] (H-HSQGTFTSDYSKYLDK([AEEA-AEEA-γGlu-γGlu-γGlu-C18 diacid])RRAQDFVQWLLNT-OH; N-terminus and C-terminus assumed) it was 0.081 nM; in that of `CC(C)C[C@H](NC(=O)[C@H](Cc1ccc(O)cc1)NC(=O)[C@H](CCCCN)NC(=O)[C@H](CO)NC(=O)[C@H](Cc1ccc(O)cc1)NC(=O)[C@H](CC(=O)O)NC(=O)[C@H](CO)NC(=O)[C@@H](NC(=O)[C@H](Cc1ccccc1)NC(=O)[C@@H](NC(=O)CNC(=O)[C@H](CCC(N)=O)NC(=O)[C@H](CO)NC(=O)[C@@H](N)Cc1c[nH]cn1)[C@@H](C)O)[C@@H](C)O)C(=O)N[C@@H](CC(=O)O)C(=O)N[C@@H](CCCCNC(=O)CC[C@H](NC(=O)COCCOCCNC(=O)COCCOCCNC(=O)CC[C@H](NC(=O)CC[C@H](NC(=O)CCCCCCCCCCCCCCCCC(=O)O)C(=O)O)C(=O)O)C(=O)O)C(=O)N[C@@H](CCCNC(=N)N)C(=O)N[C@@H](CCCNC(=N)N)C(=O)N[C@@H](C)C(=O)N[C@@H](CCC(N)=O)C(=O)N[C@@H](CC(=O)O)C(=O)N[C@@H](Cc1ccccc1)C(=O)N[C@H](C(=O)N[C@@H](CCC(N)=O)C(=O)N[C@@H](Cc1c[nH]c2ccccc12)C(=O)N[C@@H](CC(C)C)C(=O)N[C@@H](CC(C)C)C(=O)N[C@@H](CC(N)=O)C(=O)N[C@H](C(=O)O)[C@@H](C)O)C(C)C` [Example 78, N^ε16-[(4S)-4-carboxy-4-[[2-[2-[2-[[2-[2-[2-[[(4S)-4-carboxy-4-[[(4S)-4-carboxy-4-(17-carboxyheptadecanoylamino)butanoyl]amino]butanoyl]amino]ethoxy]ethoxy]acetyl]amino]ethoxy]ethoxy]acetyl]amino]butanoyl]-[Lys^16,Leu^27]-Glucagon] (H-HSQGTFTSDYSKYLDK([γGlu-AEEA-AEEA-γGlu-γGlu-C18 diacid])RRAQDFVQWLLNT-OH; N-terminus and C-terminus assumed), 0.122 nM; in that of `CC(C)C[C@H](NC(=O)[C@H](Cc1ccc(O)cc1)NC(=O)[C@H](CCCCN)NC(=O)[C@H](CO)NC(=O)[C@H](Cc1ccc(O)cc1)NC(=O)[C@H](CC(=O)O)NC(=O)[C@H](CO)NC(=O)[C@@H](NC(=O)[C@H](Cc1ccccc1)NC(=O)[C@@H](NC(=O)CNC(=O)[C@H](CCC(N)=O)NC(=O)[C@H](CO)NC(=O)[C@@H](N)Cc1c[nH]cn1)[C@@H](C)O)[C@@H](C)O)C(=O)N[C@@H](CC(=O)O)C(=O)N[C@@H](CO)C(=O)N[C@@H](CCCNC(=N)N)C(=O)N[C@@H](CCCNC(=N)N)C(=O)N[C@@H](C)C(=O)N[C@@H](CCC(N)=O)C(=O)N[C@@H](CC(=O)O)C(=O)N[C@@H](Cc1ccccc1)C(=O)N[C@H](C(=O)N[C@@H](CCC(N)=O)C(=O)N[C@@H](Cc1c[nH]c2ccccc12)C(=O)N[C@@H](CC(C)C)C(=O)N[C@@H](CC(C)C)C(=O)N[C@@H](CCCCNC(=O)CC[C@H](NC(=O)CC[C@H](NC(=O)CC[C@H](NC(=O)CCCCCCCCCCCCCCCCC(=O)O)C(=O)O)C(=O)O)C(=O)O)C(=O)N[C@H](C(=O)O)[C@@H](C)O)C(C)C` [Example 79, N^ε28-[(4S)-4-carboxy-4-[[(4S)-4-carboxy-4-[[(4S)-4-carboxy-4-(17-carboxyheptadecanoylamino)butanoyl]amino]butanoyl]amino]butanoyl]-[Leu^27,Lys^28]-Glucagon], 0.141 nM.
As to `CC(C)C[C@H](NC(=O)[C@H](Cc1ccc(O)cc1)NC(=O)[C@H](CCCCNC(=O)CC[C@H](NC(=O)CC[C@H](NC(=O)COCCOCCNC(=O)COCCOCCNC(=O)CC[C@H](NC(=O)CCCCCCCCCCCCCCCCC(=O)O)C(=O)O)C(=O)O)C(=O)O)NC(=O)[C@H](CO)NC(=O)[C@H](Cc1ccc(O)cc1)NC(=O)[C@H](CC(=O)O)NC(=O)[C@H](CO)NC(=O)[C@@H](NC(=O)[C@H](Cc1ccccc1)NC(=O)[C@@H](NC(=O)CNC(=O)[C@H](CCC(N)=O)NC(=O)[C@H](CO)NC(=O)[C@@H](N)Cc1c[nH]cn1)[C@@H](C)O)[C@@H](C)O)C(=O)N[C@@H](CC(=O)O)C(=O)N[C@@H](CO)C(=O)N[C@@H](CCCNC(=N)N)C(=O)N[C@@H](CCCNC(=N)N)C(=O)N[C@@H](C)C(=O)N[C@@H](CCC(N)=O)C(=O)N[C@@H](CC(=O)O)C(=O)N[C@@H](Cc1ccccc1)C(=O)N[C@H](C(=O)N[C@@H](CCC(N)=O)C(=O)N[C@@H](Cc1c[nH]c2ccccc12)C(=O)N[C@@H](CC(C)C)C(=O)N[C@@H](CC(C)C)C(=O)N[C@@H](CC(N)=O)C(=O)N1CCC[C@H]1C(=O)O)C(C)C` [Example 80, N^ε12-[(4S)-4-carboxy-4-[[(4S)-4-carboxy-4-[[2-[2-[2-[[2-[2-[2-[[(4S)-4-carboxy-4-(17-carboxyheptadecanoylamino)butanoyl]amino]ethoxy]ethoxy]acetyl]amino]ethoxy]ethoxy]acetyl]amino]butanoyl]amino]butanoyl]-[Leu^27,Pro^29]-Glucagon], it took 1.58 nM to reach a half-maximal effect (EC50).
`CC(C)C[C@H](NC(=O)[C@H](Cc1ccc(O)cc1)NC(=O)[C@H](CCCCN)NC(=O)[C@H](CO)NC(=O)[C@H](Cc1ccc(O)cc1)NC(=O)[C@H](CC(=O)O)NC(=O)[C@H](CO)NC(=O)[C@@H](NC(=O)[C@H](Cc1ccccc1)NC(=O)[C@@H](NC(=O)CNC(=O)[C@H](CCC(N)=O)NC(=O)[C@H](CO)NC(=O)[C@@H](N)Cc1c[nH]cn1)[C@@H](C)O)[C@@H](C)O)C(=O)N[C@@H](CC(=O)O)C(=O)N[C@@H](CO)C(=O)N[C@@H](CCCNC(=N)N)C(=O)N[C@@H](CCCNC(=N)N)C(=O)N[C@@H](C)C(=O)N[C@@H](CCC(N)=O)C(=O)N[C@@H](CC(=O)O)C(=O)N[C@@H](Cc1ccccc1)C(=O)N[C@H](C(=O)N[C@@H](CCCCNC(=O)CC[C@H](NC(=O)CC[C@H](NC(=O)COCCOCCNC(=O)COCCOCCNC(=O)CC[C@H](NC(=O)CCCCCCCCCCCCCCCCC(=O)O)C(=O)O)C(=O)O)C(=O)O)C(=O)N[C@@H](Cc1c[nH]c2ccccc12)C(=O)N[C@@H](CC(C)C)C(=O)N[C@@H](CC(C)C)C(=O)N[C@@H](CC(N)=O)C(=O)N1CCC[C@H]1C(=O)O)C(C)C` [Example 81, N^ε24-[(4S)-4-carboxy-4-[[(4S)-4-carboxy-4-[[2-[2-[2-[[2-[2-[2-[[(4S)-4-carboxy-4-(17-carboxyheptadecanoylamino)butanoyl]amino]ethoxy]ethoxy]acetyl]amino]ethoxy]ethoxy]acetyl]amino]butanoyl]amino]butanoyl]-[Lys^24,Leu^27,Pro^29]-Glucagon] displayed an EC50 of 0.156 nM.
